Test results taken from patent US20090137784A1, “Epidermal Growth Factor Receptor Polypeptides and Antibodies” (priority 2005, published 2009).
*: point of attachment. Biotin = O=C1N[C@H]2[C@H](CS[C@H]2CCCCC(=O)*)N1

Legend:
Assay type in all cases: cell-based
EGFR [1] = molecular target: T1, EGFR (Homo sapiens, UniProt P00533); assay: Biotinylated cyclic polypeptides tested for inhibition of EGFR phosphorylation in a model HMEC cell system; settings: biotinylated cyclic polypeptide
T1 construct: endogenous in cells; host or cells: 184A1 human mammary epithelial cells (parental HMEC); also 24H HMEC line (overexpresses HER2)
Text: We selected amino acid sequences corresponding to fragments of Domain II and Domain IV of EGFR. The sequence of each polypeptide is shown in the first column of Table 1. The polypeptides were chosen based on their positions on the crystal structures of monomeric and dimeric EGFR (Burgess et al, Mol. Cell. 12:541-552, 2003). Although Domain IV of EGFR is not resolved in the dimer crystal structure, it is believed that portions of Domain IV come into contact upon dimerization. […] We generated biotinylated cyclic polypeptides that included each sequence and tested them in a model HMEC cell system. The sequences of the biotinylated cyclic polypeptides are shown in the third column of Table 1. […] For the LYNPTTYQMD polypeptide, the different results obtained from polypeptide and polyclonal antisera inhibition could be due to differences in the quantitative details of the assays, or the polypeptide could have a lower affinity for the receptor than the polyclonal antisera does.

[2] = molecular target: T2, heterodimerization of HER2 with EGFR (Homo sapiens, UniProt P00533); assay: Co-immunoprecipitation of HER2 with EGFR from HMEC lysates; settings: HMECs, antiserum 0.1 and 1 μM; FIG. 2
T2 construct: EGFR in each sample was immunoprecipitated from HMEC lysates using an anti-EGFR antibody; endogenous in cells; host or cells: HMEC (human mammary epithelial cells)
Description: Next, we analyzed the amount of HER2 co-immunoprecipitated with EGFR in the presence and absence of rabbit polyclonal antiserum against peptide MGENNT. HMECs were treated as before with the antiserum. EGFR in each sample was immunoprecipitated from HMEC lysates using an anti-EGFR antibody obtained from Santa Cruz Biotechnology, Inc. Immunoprecipitates were resolved by SDS-PAGE and blotted with anti-HER2 antibody (Cell Signaling). The results are depicted in FIG. 2, where N is the non-EGF stimulated negative control, P is the cells with no rabbit antisera incubation, and 0.1 and 1 are the concentrations of rabbit polyclonal antisera in μM.

EGFR [3] = molecular target: T1, EGFR; assay: Quantitative Western blot of EGFR tyrosine 1173 phosphorylation in HMECs treated with rabbit polyclonal antisera; settings: for relative EGFR tyrosine 1173 phosphorylation: HMECs, 2 hours with antisera, then 25 nM EGF for 5 minutes, FIG. 1; for Polyclonal antisera inhibition (EGFR phosphorylation): rabbit polyclonal antisera, 184A1 human mammary epithelial cells
Description: Anti-domain II and anti-domain IV rabbit polyclonal antisera were generated against polypeptides LYNPTTYQMD (SEQ ID NO: 1) and MGENNT (SEQ ID NO:4). Briefly, rabbits were injected with one of the peptides, and the resulting antisera were collected. The rabbit sera were purified by ammonium sulfate precipitation followed by desalting. These polyclonal antisera were then used to treat human mammary epithelial cells (HMECs) and to measure the antisera's effect on EGFR tyrosine 1173 phosphorylation by quantitative Western blot analysis. HMECs were grown to 80% confluence and incubated for 2 hours in serum-free media containing various concentrations of the rabbit polyclonal antisera. The cells were then washed and incubated with 25 nM EGF for 5 minutes. The cells were lysed, and the proteins in the lysate were run on a SDS-PAGE gel and transferred onto PDVF membranes. Blots were detected using an anti-EGFR phosphotyrosine 1173 antibody and horseradish peroxidase, and band intensity was quantified using Kodak® 1D 3.5 software. The results are shown in FIG. 1 as relative EGFR tyrosine 1173 phosphorylation in the presence of varying concentrations of polyclonal antisera. The tyrosine phosphorylation in the presence of antiserum has been normalized by total EGFR intensity and tyrosine phosphorylation in the absence of antiserum.
Additional quantitative Western blot analysis was performed to examine EGFR 1173 tyrosine phosphorylation and HER21248 tyrosine phosphorylation in normal, parental HMECs, as well as a 24H HMEC line which overexpresses HER2 (Hendriks et al., Cancer Res. 63:1130-1137, 2003). Western blot analysis was described as above, and the results are depicted in FIGS. 3-6. […] P DII and P DIV are the polyclonal antisera against polypeptides LYNPTTYQMD (SEQ ID NO:1) and MGENNT (SEQ ID NO:4), respectively. For comparison, P 225 is a commercially purchased monoclonal antibody that blocks EGFR ligand binding (Sato et al., Mol. Biol. Med. 1:511-529, 1983). Negative controls are indicated by a (−). […] FIGS. 5 and 6 show relative HER2 1248 tyrosine phosphorylation in parental and 24H HMECs, respectively. The results in FIGS. 3-6 indicate that antibodies that bind to polypeptides LYNPTTYQMD (SEQ ID NO:1) and MGENNT (SEQ ID NO:4) of EGFR can reduce both EGFR and HER2 phosphorylation in normal HMECs, as well as those overexpressing HER2.

Row | Substance | Peptide Inhibition (EGFR phosphorylation) (EGFR [1]) | HER2 co-immunoprecipitated with EGFR [2] | relative EGFR tyrosine 1173 phosphorylation (EGFR [3]) | Polyclonal antisera inhibition (EGFR phosphorylation) (EGFR [3])
1 | LYNPTTYQMD [Biotin-GCGLYNPTTYQMDGCG-CONH2] | No | – | – | –
2 | LVWKYADAG [Biotin-GCLVWKYADAGCG-CONH2] | Yes | – | – | –
3 | CAHYIDGPHC [Biotin-GCAHYIDGPHCG-CONH2] | Yes | – | – | –
4 | CRNVSRGREC [Biotin-GCRNVSRGRECG- CONH2] | Yes | – | – | –
5 | Biotin-Aha-CMGENNTG-CONH2 | Yes | less HER2 is co-immunoprecipitated with EGFR | decrease the tyrosine phosphorylation of EGFR | Yes
6 | Biotin-GCGLYNPTTYQMDGCG-NH2 (cysteine pairing not given here) | – | – | decrease the tyrosine phosphorylation of EGFR | Yes
